Results: patent US20120121540A1 (priority 2007, published 2012)

Assay: HCV replicon assay (luciferase reporter, ET cell line)
Format: cell-based
Conditions: Hepatitis C virus, HCV replicon luciferase activity in ET cells
Method: A cell line, ET (Huh-lucubineo-ET) is used for screening of compounds for inhibiting HCV RNA dependent RNA polymerase. The ET cell line is stably transfected with RNA transcripts harboring a I389 luc-ubi-neo/NS3-3′/ET; replicon with firefly luciferase-ubiquitin-neomycin phosphotransferase fusion protein and EMCV-IRES driven NS3-5B polyprotein containing the cell culture adaptive mutations (E1202G; T1280I; K1846T) (Krieger at al, 2001 and unpublished). The ET cells are grown in DMEM (Dulbeco's Modified Eagle's Medium), supplemented with 10% fetal calf serum, 2 mM Glutamine, Penicillin (100 IU/mL)/Streptomycin (100 μg/mL), 1× nonessential amino acids, and 250 μg/mL G418 (“Geneticin”). They are all available through Life Technologies (Bethesda, Md.). The cells are plated at 0.5−1.0×10^4 cells/well in the 96 well plates and incubated for 24 hrs before adding test compound. The compounds are added to the cells to achieve a final concentration of 0.1 nM to 50 μm and a final DMSO (dimethylsulfoxide) concentration of 0.5%. Luciferase activity is measured 48-72 hours later by adding a lysis buffer and the substrate (Catalog number Glo-lysis buffer E2661 and Bright-Glo luciferase system E2620 Promega, Madison, Wis.). Cells should not be too confluent during the assay. Percent inhibition of replication data is plotted relative to no compound control. Under the same condition, cytotoxicity of the compounds are determined using cell proliferation reagent, WST-1 (Roche, Germany). The compounds showing antiviral activities, but no significant cytotoxicities are chosen to determine EC50 and TC50. For these determinations, a 10 point, 2-fold serial dilution for each compound was used, which spans a concentration range of 1000 fold. EC50 and similarly TC50 values were calculated by fitting % inhibition at each concentration to the following equation:
% inhibition=100%/[(EC50/[I])^b+1]
where b is Hill's coefficient.
% inhibition values at a specific concentration, […] for example, can also be derived from the equation above.

Going from `O=C(c1nc2c(C(F)(F)F)cc(-c3ccoc3)cn2c1Cl)N1CC=C(c2ccccc2CO)CC1` [Compound 561, (3-Chloro-6-furan-3-yl-8-trifluoromethyl-imidazo[1,2-a]pyridin-2-yl)-[4-(2-hydroxymethyl-phenyl)-3,6-dihydro-2H-pyridin-1-yl)-methanone] to `O=C(c1nc2c(C(F)(F)F)cc(-c3ccoc3)cn2c1Cl)N1CC=C(c2cnoc2)CC1` [Compound 582, (3-Chloro-6-furan-3-yl-8-trifluoromethyl-imidazo[1,2-a]pyridin-2-yl)-(4-isoxazol-4-yl-3,6-dihydro-2H-pyridin-1-yl)-methanone], the inhibition at 10 µM rises from 89.1% to 91.2%.

Compared with `O=C(c1nc2c(C(F)(F)F)cc(-c3coc(Cl)c3)cn2c1Cl)N1CCC(c2cccc(F)c2)C1` (stereo not shown) [Compound 633, [3-Chloro-6-(5-chloro-furan-3-yl)-8-trifluoromethyl-imidazo[1,2-a]pyridin-2-yl]-[3-(3-fluoro-phenyl)-pyrrolidin-1-yl]-methanone], `O=C(c1nc2c(C(F)(F)F)cc(-c3cn[nH]c3)cn2c1I)N1CCC(c2cccc(F)c2)C1` (stereo not shown) [Compound 659] is higher in inhibition at 10 µM: 90.2% for the first, 93.8% for the second.

Compared with `O=C(c1nc2c(C(F)(F)F)cc(-c3ccco3)cn2c1Cl)N1CCCC1c1cccs1` (stereo not shown) [Compound 189, (3-Chloro-6-furan-2-yl-8-trifluoromethyl-imidazo[1,2-a]pyridin-2-yl)-(2-thiophen-2-yl-pyrrolidin-1-yl)-methanone], `CN(Cc1cccs1)C(=O)c1cn2cc(-c3ccco3)cc(C(F)(F)F)c2n1` [Compound 146, 6-Furan-2-yl-8-trifluoromethylimidazo[1,2-a]pyridine-2-carboxylic Acid Methyl-thiophen-2-ylmethyl-amide] is lower in inhibition at 10 µM: 97.3% for the first, 35.1% for the second.

First: O=C(c1nc2c(C(F)(F)F)cc(-c3ccoc3)cn2c1Cl)N1CC=C(c2nccs2)C1 [Compound 428, (3-Chloro-6-furan-3-yl-8-trifluoromethyl-imidazo[1,2-a]pyridin-2-yl)-(3-thiazol-2-yl-2,5-dihydro-pyrrol-1-yl)-methanone]
Second: CS(=O)(=O)NC1CN(C(=O)c2nc3c(C(F)(F)F)cc(-c4ccoc4)cn3c2Cl)C1 [Compound 491, N-[1-(3-Chloro-6-furan-3-yl-8-trifluoromethyl-imidazo[1,2-a]pyridine-2-carbonyl)-azetidin-3-yl]-methanesulfonamide]
The inhibition at 10 µM of the first is higher: 99.9% for the first, 92.4% for the second.

First: C/C=C\c1c(C(=O)NCc2cccs2)nc2c(C(F)(F)F)cc(-c3cccc(F)c3)cn12 [Compound 300, 6-(3-Fluoro-phenyl)-3-propenyl-8-trifluoromethyl-imidazo[1,2-a]pyridine-2-carboxylic Acid(thiophen-2-ylmethyl)-amide]
Second: Cn1cc(-c2cc(C(F)(F)F)c3nc(C(=O)NCc4cccs4)c(Cl)n3c2)cn1 [Compound 280, 3-Chloro-6-(1-methyl-1H-pyrazol-4-yl)-8-trifluoromethyl-imidazo[1,2-a]pyridine-2-carboxylic Acid (thiophen-2-ylmethyl)-amide]
The inhibition at 10 µM of the first is lower: 76.9% for the first, 83.9% for the second.

Compared with `O=C(c1cn2cc(-c3cn[nH]c3)cc(C(F)(F)F)c2n1)N1CCC(c2ccccc2F)C1` (stereo not shown) [Compound 377, [3-(2-Fluoro-phenyl)-pyrrolidin-1-yl]-[6-(1H-pyrazol-4-yl)-8-trifluoromethyl-imidazo[1,2-a]pyridin-2-yl]-methanone], `O=C(c1nc2c(C(F)(F)F)cc(-c3ccoc3)cn2c1Cl)N1CCC(N2CCOCC2)C1` (stereo not shown) [Compound 381, (3-Chloro-6-furan-3-yl-8-trifluoromethyl-imidazo[1,2-a]pyridin-2-yl)-(3-morpholin-4-yl-pyrrolidin-1-yl)-methanone] is lower in inhibition at 10 µM: 94.2% for the first, 37.9% for the second.

For `O=C(NCc1ccco1)c1cc2cc(-c3ccccc3)cc(I)n2n1` [Compound 124, 7-Iodo-5-phenyl-pyrazolo[1,5-a]pyridine-2-carboxylic Acid (furan-2-ylmethyl)-amide], the inhibition at 10 µM was 54.3%.
